# Paper PMC8063026 (Frontiers in Pharmacology, 2021)
# Like-named read-outs stand apart in the source and are kept apart here.
# Columns and labels:
# [1] = LC-MS/MS detection of mephedrone metabolites in a human urine sample; format: in vivo; set-up: key to Detected in urine samples: detected (+); not detected (−); conditions: for detection in human urine sample: achiral LC-MS/MS, after enzymatic workup; for Detected in urine samples: human urine, mephedrone user, only syn- and anti-configurations could be separated
# Source text: The biological specimen, human urine, was provided by the Department of Chemical Analytics, Seibersdorf Laboratories GmbH. The sample was taken from a subject postmortem in a fatal case of drug overdose. […] Given this fact, we assumed that also the metabolites would be detectable in sufficient quantity. To evaluate the presence of any metabolites whatsoever in the urine sample we designed an achiral separation protocol for liquid chromatography and we coupled it with triple quadrupole mass spectrometer. The advantage of LC-MS/MS system is that even if two substances have the same retention time, they can still be differentiated by their fragmentation pattern. More in details, the samples for urine analysis were analyzed using a CTC HTS PAL autosampler (CTC Analytics) and a Thermo Surveyor LC system (Thermo) interfaced to a TSQ Quantum Discovery Max triple quadrupole mass spectrometer (Thermo). A C18 security guard cartridge (4 × 2 mm) (Phenomenex) was used for sample clean-up and the analytical HPLC column was a Kinetex 1.7 μm C18 100Å 150 × 2.1 mm (Phenomenex) and Cortecs T3, 2.7 μm C18 120Å 100 × 2.1 mm (Waters). Column selection was performed by a Maylab Mistraswitch column selector (Maylab Analytical Instruments). The solvents were 0.2% formic acid in water (A) and acetonitrile (B). The temperature of the analytical column was maintained at 40°C. The mass spectrometer was equipped with heated electrospray ionization (ESI) source and was operated in positive ionization mode with a spray voltage set at 4500V. The capillary temperature was adjusted to 320°C. The sheath and auxiliary gas (nitrogen) flow rate was 25 and 10 arbitrary units, respectively. The system was operated in selected […] (srm) mode with argon as the collision gas at a pressure of 1.5 mTorr. For the achiral separation, stem solutions were prepared by weighing the reference substances in volumetric flasks and filling them up with MeOH (99.9%; HPLC grade), creating average concentration of 1 mg/ml. Then dilution solutions were prepared as follows: 10 μL of stem solution was filled up to 5 ml MeOH, creating dilution […]. Samples were prepared from dilution solutions by taking out 25 μL and mixing it together with 25 μL of ISP, 50 μL ISS and filled up to 1 ml with Milli-Q water. The final sample solvent was water/MeOH 9/1. For the enzymatic workup, phosphate buffer (1 ml, 0.8M, pH = 7), β-glucuronidase/arylsulfatase (25 μL) and β-glucuronidase (25 μL) were added to the solutions. The solutions were heated at 50°C during 1 h upon which EtOAc (7 ml) was added. The solution was put into shaker for 10min, following centrifugation for 5 min. The organic phase was separated and evaporated into dryness in stream of pressurized nitrogen. The residue was taken up in 150 μL MQ-water/MeOH 9/1 + 0.4% formic acid, heated at 50°C for 5 min and subjected to LC-MS analysis.
# If on one hand the synthesis of putative metabolites allows the establishment of structure activity relationships, on the other hand, it provides pure material to evaluate their presence in human urine samples and determine their pharmacological relevance. To determine the presence of any metabolites in the urine sample, we have designed an achiral separation protocol and coupled the liquid chromatography with triple quadrupole mass spectrometer (LCMS/MS). With the LCMS/MS system two substances with the same retention time, can still be differentiated by their fragmentation pattern. Since metabolites carrying a primary alcohol functionality can form glucuronide and sulfate conjugates, we performed an enzymatic workup of the urine sample in order to cleave them. Apart from the parental drug, we detected 4-OH-MMC and 4-MC (nor-meph) which we have both already identified in our previous publication ([Mayer et al., 2019]), and the two previously uncharacterized metabolites 4-COOH-MC and dihydro-4-MC (Figure 6). […]
# DAT [2] = biological target: T1, DAT (Homo sapiens, UniProt Q01959); test: cell-based
# T1 construct: expressed in transfected cells
# T1 sequence (Q01959 whole entry): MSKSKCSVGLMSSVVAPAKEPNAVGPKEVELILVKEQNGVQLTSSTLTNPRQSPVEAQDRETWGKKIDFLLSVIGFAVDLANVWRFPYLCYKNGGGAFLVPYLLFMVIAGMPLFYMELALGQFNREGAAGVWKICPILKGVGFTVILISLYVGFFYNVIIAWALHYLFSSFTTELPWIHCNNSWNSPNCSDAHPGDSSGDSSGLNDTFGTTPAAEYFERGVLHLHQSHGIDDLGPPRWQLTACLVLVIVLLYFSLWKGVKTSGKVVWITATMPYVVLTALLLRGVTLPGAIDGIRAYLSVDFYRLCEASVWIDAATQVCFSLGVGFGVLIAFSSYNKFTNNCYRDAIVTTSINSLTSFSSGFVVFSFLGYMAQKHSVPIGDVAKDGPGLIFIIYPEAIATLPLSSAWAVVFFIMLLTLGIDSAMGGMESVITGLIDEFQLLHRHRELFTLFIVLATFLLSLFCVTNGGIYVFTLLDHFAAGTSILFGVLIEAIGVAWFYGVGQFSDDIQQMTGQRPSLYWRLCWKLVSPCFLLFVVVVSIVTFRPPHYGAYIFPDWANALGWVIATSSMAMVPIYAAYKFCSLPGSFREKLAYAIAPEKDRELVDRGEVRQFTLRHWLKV
# human NET = biological target: T2, human NET (Homo sapiens, UniProt P23975); test: cell-based
# T2 construct: expressed in transfected cells
# T2 sequence (P23975 whole entry): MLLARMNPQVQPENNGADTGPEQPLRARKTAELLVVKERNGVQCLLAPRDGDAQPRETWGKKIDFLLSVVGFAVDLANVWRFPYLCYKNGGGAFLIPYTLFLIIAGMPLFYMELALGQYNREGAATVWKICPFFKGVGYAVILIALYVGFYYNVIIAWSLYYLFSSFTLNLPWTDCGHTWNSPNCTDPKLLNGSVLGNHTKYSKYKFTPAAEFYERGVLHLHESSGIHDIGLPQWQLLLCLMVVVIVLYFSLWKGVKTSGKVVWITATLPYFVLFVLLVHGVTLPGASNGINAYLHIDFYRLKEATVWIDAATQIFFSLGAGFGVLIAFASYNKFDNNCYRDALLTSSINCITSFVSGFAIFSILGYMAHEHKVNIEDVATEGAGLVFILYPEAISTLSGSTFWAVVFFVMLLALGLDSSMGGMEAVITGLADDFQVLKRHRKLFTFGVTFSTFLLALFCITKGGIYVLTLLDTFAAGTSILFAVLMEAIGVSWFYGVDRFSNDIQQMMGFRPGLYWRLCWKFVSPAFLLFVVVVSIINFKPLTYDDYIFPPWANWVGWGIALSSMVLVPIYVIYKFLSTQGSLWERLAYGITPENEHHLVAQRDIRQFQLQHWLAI
# SERT [3] = biological target: T3, SERT (Homo sapiens, UniProt P31645); test: Uptake-inhibition of [3H]5-HT in HEK293 cells stably expressing human SERT; format: cell-based
# T3 construct: expressed in transfected cells
# T3 sequence (P31645 whole entry): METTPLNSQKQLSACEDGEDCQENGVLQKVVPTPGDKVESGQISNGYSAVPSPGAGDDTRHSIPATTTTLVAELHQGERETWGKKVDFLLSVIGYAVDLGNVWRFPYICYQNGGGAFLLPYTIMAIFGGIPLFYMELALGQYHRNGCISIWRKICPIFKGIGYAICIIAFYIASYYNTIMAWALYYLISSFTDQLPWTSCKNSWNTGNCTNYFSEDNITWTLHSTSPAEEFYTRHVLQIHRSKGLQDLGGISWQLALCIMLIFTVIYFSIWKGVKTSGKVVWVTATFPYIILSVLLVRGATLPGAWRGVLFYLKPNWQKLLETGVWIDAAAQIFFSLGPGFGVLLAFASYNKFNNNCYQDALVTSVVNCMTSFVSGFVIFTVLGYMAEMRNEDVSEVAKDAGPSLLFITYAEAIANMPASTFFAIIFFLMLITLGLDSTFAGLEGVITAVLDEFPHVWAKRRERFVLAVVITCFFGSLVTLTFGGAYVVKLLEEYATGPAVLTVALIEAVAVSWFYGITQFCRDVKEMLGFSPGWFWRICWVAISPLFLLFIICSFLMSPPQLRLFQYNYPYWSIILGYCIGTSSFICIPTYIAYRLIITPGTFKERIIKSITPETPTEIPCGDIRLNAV
# SERT [4] = biological target: T3, SERT; test: Transporter electrophysiology (whole cell patch clamp), HEK293 cells stably expressing SERT; format: cell-based; conditions: compound applied at 30 µM, -60 mV
# Protocol: (§1) Human embryonic kidney 293 cells (HEK293 cells) were cultivated in Dulbecco’s Modified Eagle Medium (DMEM), containing 10% heat-in- activated fetal calf serum (FCS), streptomycin (100 μg x 100 ml−1) and penicillin (100 U × 100 ml−1). Geneticin (50 μg x mL−1) was added to select HEK293 cells stably expressing the human isoforms of DAT, NET and SERT as described earlier ([Mayer et al., 2016a]). Cell lines were maintained in a sub-confluent state in humidified atmosphere (37°C, 5% CO2). For uptake inhibition experiments cells expressing the desired transporter were seeded the days before the experiment (40,000 cells per well) or two days before the experiments (20,000 cells per well) onto poly-D-lysine (PDL) coated 96-well plates 24 h prior to the experiment. In the case of transporter-electrophysiology cells were cultivated in 10 cm dishes and 24 h before the experiments they were detached, and seeded at low density onto PDL-coated 3 cm dishes.
# (§2) Transporter electrophysiology was conducted by the means of whole cell patch clamp in HEK293 cells stably expressing DAT or SERT. Substrate-induced currents were recorded under voltage clamp (−60 mV). Cells were continuously superfused with a physiological external solution that contains 140 mM NaCl, 2.5 mM CaCl2, 2 mM MgCl2, 20 mM glucose and 10 mM HEPES, pH = 7.4. The pipette solution contained 133 mM potassium gluconate, 6 mM NaCl, 1 mM CaCl2, 0.7 mM MgCl2, 10 mM HEPES, 10 mM EGTA, pH = 7.2. Currents elicited by mephedrone 30 μM, were measured at room temperature (20–24°C) using an […] amplifier and pClamp 11.2 software (MDS Analytical Technologies). All the solutions perfused onto the cell were applied using a DAD-12 superfusion system and a 8-tube perfusion manifold (ALA Scientific Instruments), which allowed for rapid solution exchange. Current traces were filtered at 1 kHz and digitized at 10 kHz using a Digidata 1,550 (MDS Analytical Technologies). […] For the analysis, passive holding currents were subtracted, and the traces were filtered using a 100-Hz digital Gaussian low-pass filter.
# DAT [5] = biological target: T1, DAT; test: Transporter electrophysiology (whole cell patch clamp), HEK293 cells stably expressing DAT; format: cell-based; conditions: compound applied at 30 µM, -60 mV
# Protocol: as §1, §2
# SERT [6] = biological target: T3, SERT; conditions: read-out: IC50 SERT; QSAR data matrix; unit inferred; compounds not tested in this paper, source not given, presumably ref Mayer et al., 2019; cited from earlier work
# [7] = QSAR data matrix, from IC50 DAT, read-out: pIC50 DAT (converted)
# [8] = mean (95% confidence interval), non-linear regression, read-out: IC50 (µM) DAT
# [9] = mean (95% confidence interval), non-linear regression, read-out: IC50 (µM) NET
# [10] = in Figure 3, read-out: IC50(SERT)
# [11] = mean (95% confidence interval), non-linear regression, read-out: IC50 (µM) SERT
# [12] = IC50 (µM) SERT, mean (95% confidence interval), non-linear regression
# [13] = IC50 SERT, QSAR data matrix, unit inferred
# [14] = QSAR data matrix, unit inferred, read-out: IC50 SERT
SMILES,Selectivity ratio DAT/SERT (DAT [2]),IC50 (DAT [2]; [7]) [µM],IC50 (DAT [2]; [8]) [µM],Detected in urine samples [1],Selectivity ratio NET/DAT (human NET),IC50 (human NET; [9]) [µM],IC50 (SERT [3]; [11]) [µM],SERT-mediated current (SERT [4]),DAT-mediated current (DAT [5]),other results
"Cc1ccc(C(O)C(C)N)cc1 (stereo not shown) [dihydro-4-MC, dihydro-4-nor-mephedrone]",,,,,,,,,,detection in human urine sample [1]: detected
"C[C@@H](N)[C@H](O)c1ccc(CO)cc1 [Dihydro-(R,R)-4-OH-MC]",48.42,28.2,28.3,−,0.61,46.5,1370,did not elicit any DAT or SERT-mediated current,did not elicit any DAT or SERT-mediated current,IC50 (SERT [3]; [10]): 1400 µM
"CN[C@H](C)[C@H](O)c1ccc(CO)cc1 [Dihydro-(R,R)-4-OH-MMC]",67.72,25.7,25.6,−,0.69,37,1740,did not elicit any DAT or SERT-mediated current,did not elicit any DAT or SERT-mediated current,IC50 (SERT [3]; [10]): 1700 µM
"Cc1ccc([C@H](O)[C@H](C)N)cc1 [Dihydro-(S,S)-4-MC]",1.42,22.4,22.6,+,2.37,9.51,,elicited only SERT-mediated currents,elicited only SERT-mediated currents,IC50 (SERT [3]; [12]): 32.2 µM; IC50 (SERT [3]; [13]): 32.2 µM
"CN[C@H](C)[C@@H](O)c1ccc(CO)cc1 [Dihydro-(S,R)-4-OH-MMC]",40.99,77.6,77,−,1.55,,3160,,,"IC50 (human NET; QSAR data matrix, from IC50 NET, read-out: pIC50 NET (converted)): 50.1 µM"
"C[C@@H](N)[C@@H](O)c1ccc(CO)cc1 [Dihydro-(S,R)-4-OH-MC]",12.68,91.2,91.2,−,1.09,83.4,1160,,,
CNC(C)C(O)c1ccc(CO)cc1 (stereo not shown) [dihydro-4-OH-MMC],,,,,,,,,,detection in human urine sample [1]: not found
"C[C@H](N)[C@H](O)c1ccc(CO)cc1 [Dihydro-(R,S)-4-OH-MC]",3.86,100,99.1,−,1.60,62,383,,,IC50 (SERT [3]; [14]): 383 µM
"Cc1ccc([C@H](O)[C@@H](C)N)cc1 [Dihydro-(S,R)-4-MC]",11.53,15.5,15.5,+,0.37,41.8,,,absence of DAT-mediated current,IC50 (SERT [3]; [12]): 178 µM; IC50 (SERT [3]; [13]): 178 µM
C[C@H](N)C(=O)c1ccc(CO)cc1 [S-4-OH-MC],2.08,,19.2,−,3.22,5.97,40,elicited both DAT- and SERT mediated currents,elicited both DAT- and SERT mediated currents,
"CN[C@H](C)C(=O)c1ccc(C)cc1 [2R-MMC, R-mephedrone, reference compound]",,0.776,,,,,,,,"IC50 (SERT [6]): 74.8 µM; IC50 (human NET): 2.75 µM; IC50 (SERT [3]; pIC50 SERT, QSAR data matrix, from IC50 SERT): 74.1 µM"
"Cc1ccc([C@@H](O)[C@@H](C)N)cc1 [Dihydro-(R,R)-4-MC]",9.26,8.13,8.05,+,0.44,18.1,,elicited only SERT-mediated currents,,"IC50 (SERT [3]; [12]): 74.6 µM; IC50 (SERT [3]; [13]): 74.6 µM; DAT-mediated current (DAT [5]; listed as dihydro-(R,R)-4-MC): absence of DAT-mediated current; DAT-mediated current (DAT [5]; listed as dihydro-(R,R)-4 MC): elicited only SERT-mediated currents"
"C[C@H](N)[C@@H](O)c1ccc(CO)cc1 [Dihydro-(S,S)-4-OH-MC]",9.92,58.9,59.2,−,4.71,12.6,588,,,
"CN[C@@H](C)[C@@H](O)c1ccc(CO)cc1 [Dihydro-(S,S)-4-OH-MMC]",11.49,162,161,−,0.55,291,1850,,,
"CNC(C)C(=O)c1ccc(CO)cc1.Cl (stereo not shown) [4-OH-MMC, 4-OH-mephedrone, reference compound]",,,,,,,,,,detection in human urine sample [1]: detected
"CN[C@@H](C)[C@H](O)c1ccc(CO)cc1 [Dihydro-(R,S)-4-OH-MMC]",5.87,85.1,84.5,−,1.57,53.9,496,,,IC50 (SERT [3]; [14]): 496 µM
